Test results published in patent US4500526A, “Cephalosporin derivatives” (Bristol-Myers Company, priority 1983, dated 1985).
≈ marks a conversion by molar mass, not a printed value. Read-outs that look alike come from different tables or passages of the source.

Legend:
[1] = tested on: Penicillinsensitive S. aureus (5 strains); assay: MIC, two-fold serial agar dilution, group (G+)-Ia; format: cell-based; settings: Staphylococcus aureus, read-out: Geometric Mean of MIC
Method: (§1) In the primary evaluation of the compounds of this invention, the Minimum Inhibitory Concentrations (MIC's) of the compounds were determined by the two-fold serial agar dilution method in Mueller-Hinton agar against 32 strains of test organisms in six groups. The sample weights of the test compounds were adjusted according to the purity of each compound, so as to give a more accurate measure of the MIC's.
(G+)Ia: Penicillinsensitive S. aureus (5 strains)

[2] = tested on: Penicillinresistant S. aureus (5 strains); assay: MIC, two-fold serial agar dilution, group (G+)-Ib; format: cell-based; settings: Staphylococcus aureus, read-out: Geometric Mean of MIC
Method: as §1
(G+)Ib: Penicillinresistant S. aureus (5 strains)

[3] = tested on: Cephalothinsensitive E. coli (2 strains), Kl. pneumoniae (1 strain) and Pr. mirabilis (2 strains); assay: MIC, two-fold serial agar dilution, group (G-)-Ia; format: cell-based; settings: 5 strains, Mueller-Hinton agar, read-out: Geometric Mean of MIC
Method: as §1
(G-)Ia: Cephalothinsensitive E. coli (2 strains), Kl. pneumoniae (1
strain) and Pr. mirabilis (2 strains)

[4] = tested on: Cephalothinresistant E. coli (3 strains) and Kl. pneumoniae (3 strains); assay: MIC, two-fold serial agar dilution, group (G-)-Ib; format: cell-based; settings: Escherichia coli, read-out: Geometric Mean of MIC
Method: as §1
(G-)Ib: Cephalothinresistant E. coli (3 strains) and Kl. pneumoniae (3

[5] = tested on: M. morganii (1 strain), Ent. cloacae (2 strains) and Ser. marcescens (2 strains); assay: MIC, two-fold serial agar dilution, group (G-)-II; format: cell-based; settings: read-out: Geometric Mean of MIC
Method: as §1
(G-)II: M. morganii (1 strain), Ent. cloacae (2 strains) and Ser.

[6] = tested on: Ps. aeruginosa (6 strains); assay: MIC, two-fold serial agar dilution, group (G-)-III; format: cell-based; settings: Pseudomonas aeruginosa, read-out: Geometric Mean of MIC
Method: as §1
(G-)III: Ps. aeruginosa (6 strains)

[7] = Mouse blood levels after single intramuscular injection; format: in vivo, mice
Method: The absorption of some of the preferred compounds were determined in mice following a single intramuscular injection of the test compound (dissolved in 0.1M phosphate buffer; pH 7) at a dosage of 20 mg/kg. Blood samples were collected from the orbital sinuses into heparinized capillary tubes and assayed in Nutrient Agar (pH 6.6) using E. coli Ess-22-31 as the test organism. The blood levels at various time intervals, the half-life values (t1/2) and the areas under the curve (AUC) are shown in Table 2.

[8] = tested on: E. coli Juhl; assay: Median protective dose in infected mice; format: in vivo; settings: Escherichia coli, im, immediately after intraperitoneal challenge, read-out: PD50
Method: (§2) The median protective dose (PD50) of some of the preferred compounds against various microorganisms was determined in mice by intramuscular administration of the test compound immediately after an intraperitoneal bacterial challenge.

[9] = tested on: P. aeruginosa A9843; assay: Median protective dose in infected mice; format: in vivo; settings: Pseudomonas aeruginosa, im, immediately after intraperitoneal challenge, read-out: PD50
Method: as §2

[10] = tested on: S. aureus Smith; assay: Median protective dose in infected mice; format: in vivo; settings: Staphylococcus aureus, im, immediately after intraperitoneal challenge, read-out: PD50
Method: as §2

[11] = (G+)-Ia, 5 strains, Mueller-Hinton agar
[12] = (G+)-Ib, 5 strains, Mueller-Hinton agar
[13] = (G-)-III, 6 strains, Mueller-Hinton agar
[14] = (G-)-II, 5 strains, Mueller-Hinton agar

SMILES | MIC [1, 11] [µg/mL] | MIC [2, 12] [µg/mL] | MIC [3] [µg/mL] | MIC [4] [µg/mL] | MIC [5] [µg/mL] | MIC [6, 13] [µg/mL] | AUC ([7]; in vivo, im, 20 mg/kg) [ng·h/mL] | concentration at 10 min ([7]; in vivo, im, 20 mg/kg) [ng/mL] | concentration at 20 min ([7]; in vivo, im, 20 mg/kg) [ng/mL] | concentration at 0.5 h ([7]; in vivo, im, 20 mg/kg) [ng/mL] | concentration at 40 min ([7]; in vivo, im, 20 mg/kg) [ng/mL] | concentration at 50 min ([7]; in vivo, im, 20 mg/kg) [ng/mL] | concentration at 1 h ([7]; in vivo, im, 20 mg/kg) [ng/mL] | concentration at 1.5 h ([7]; in vivo, im, 20 mg/kg) [ng/mL] | concentration at 2 h ([7]; in vivo, im, 20 mg/kg) [ng/mL] | half-life ([7]; in vivo, im, 20 mg/kg) [min] | ED50 [8] [mg/kg] | ED50 [10] [mg/kg] | MIC [5, 14] [µg/mL] | other results
CCO/N=C(\C(=O)NC1C(=O)N2C(C(=O)[O-])=C(C[n+]3ccc4scnc4c3)CSC12)c1csc(N)n1 (stereo not shown) [Ib, 7-[(Z)-2-(2-Aminothiazol-4-yl)-2-ethoxyiminoacetamido]-3-{(5-thiazolo[4,5-c]pyridino)methyl}-3-cephem-4-carboxylate] | 0.42 (≈ 0.77 µM) | 0.96 (≈ 1.76 µM) | 0.035 (≈ 0.0641 µM) | 0.22 (≈ 0.403 µM) | 0.32 (≈ 0.586 µM) | 2.6 (≈ 4.77 µM) | 8400 | 15000 | 22000 | 8400 | 6100 | 3800 | 920 | 680 | 430 | 19 |  |  |  | 
C=CCO/N=C(\C(=O)NC1C(=O)N2C(C(=O)[O-])=C(C[n+]3ccc4scnc4c3)CSC12)c1csc(N)n1 (stereo not shown) [Ic, 7-[(Z)-2-Allyloxyimino-2-(2-aminothiazol-4-yl)acetamido]-3-{(5-thiazolo[4,5-c]pyridino)methyl}-3-cephem-4-carboxylate] | 0.32 (≈ 0.574 µM) | 0.56 (≈ 1 µM) | 0.053 (≈ 0.095 µM) | 0.44 (≈ 0.789 µM) | 0.66 (≈ 1.18 µM) | 3.9 (≈ 6.99 µM) | 12000 | 18000 | 14000 | 10000 | 8200 | 5800 | 3600 | 1900 | 1300 | 28 | 0.048 | 1.1 |  | ED50 [9]: 8.6 mg/kg
C#CCO/N=C(\C(=O)NC1C(=O)N2C(C(=O)[O-])=C(C[n+]3ccc4sc(N)nc4c3)CS[C@H]12)c1csc(N)n1 (stereo partly shown) [If, 7-[(Z)-2-(2-Aminothiazol-4-yl)-2-(propargyloxyimino)acetamido]-3-(2-amino-5-thiazolo[4,5-c]pyridinio)methyl-3-cephem-4-carboxylate] | 0.3 (≈ 0.526 µM) |  | 0.029 (≈ 0.0508 µM) | 0.4 (≈ 0.701 µM) |  | 2.1 (≈ 3.68 µM) | 9100 | 14000 | 11000 | 7300 | 4200 | 3600 | 3300 | 2000 | 1200 | 34 | 0.013 | 0.36 | 0.35 (≈ 0.613 µM) | MIC [2]: 0.8 µg/mL (≈ 1.4 µM); ED50 [9]: 3.3 mg/kg
Nc1nc(/C(=N/OCC(=O)O)C(=O)NC2C(=O)N3C(C(=O)[O-])=C(C[n+]4ccc5sc(N)nc5c4)CS[C@H]23)cs1 (stereo partly shown) [Ig, 7-[(Z)-2-(2-Aminothiazol-4-yl)-2-(carboxymethoxyimino)acetamido]-3-(2-amino-5-thiazolo[4,5-c]pyridinio)methyl-3-cephem-4-carboxylate] | 2.1 (≈ 3.56 µM) |  | 0.0072 (≈ 0.0122 µM) | 0.3 (≈ 0.508 µM) | 0.1 (≈ 0.169 µM) |  | 15000 | 21000 | 17000 | 15000 | 10000 | 7600 | 6300 | 1900 | 840 | 22 |  |  |  | MIC [2]: 3.6 µg/mL (≈ 6.1 µM); MIC [6]: 1.8 µg/mL (≈ 3.05 µM)
CO/N=C(\C(=O)NC1C(=O)N2C(C(=O)[O-])=C(C[n+]3ccc4sc(C)nc4c3)CSC12)c1csc(N)n1 (stereo not shown) [Ih, 7-[(Z)-2-(2-Aminothiazol-4-yl)-2-methoxyiminoacetamido]-3-[{5-(2-methylthiazolo[4,5-c]pyridinio)}methyl]-3-cephem-4-carboxylate] | 0.34 (≈ 0.623 µM) | 0.78 (≈ 1.43 µM) | 0.007 (≈ 0.0128 µM) | 0.058 (≈ 0.106 µM) | 0.11 (≈ 0.202 µM) | 2.3 (≈ 4.22 µM) | 8600 | 16000 | 10000 | 6900 | 5900 | 4100 | 3000 | 790 | 130 | 16 |  |  |  | 
CO/N=C(\C(=O)NC1C(=O)N2C(C(=O)[O-])=C(C[n+]3ccc4sc(SC)nc4c3)CSC12)c1csc(N)n1 (stereo not shown) [Ii, 7-[(Z)-2-(2-Aminothiazol-4-yl)-2-methoxyiminoacetamido]-3-[{5-(2-methylthiothiazolo[4,5-c]pyridinio)}methyl]-3-cephem-4-carboxylate] | 0.23 (≈ 0.398 µM) |  | 0.025 (≈ 0.0433 µM) | 0.13 (≈ 0.225 µM) |  |  | 6800 | 14000 | 10000 | 5900 | 4800 | 2400 | 1500 | 250 | < 100 | 13 |  |  | 0.24 (≈ 0.415 µM) | MIC [2]: 0.2 µg/mL (≈ 0.346 µM); MIC [6]: 5.5 µg/mL (≈ 9.52 µM)
CCO/N=C(\C(=O)NC1C(=O)N2C(C(=O)[O-])=C(C[n+]3ccc4sc(N)nc4c3)CSC12)c1csc(N)n1 (stereo not shown) [Ij, 7-[(Z)-2-(2-Aminothiazol-4-yl)-2-ethoxyiminoacetamido]-3-[{5-(2-aminothiazolo[4,5-c]pyridinio)}methyl]-3-cephem-4-carboxylate] | 0.36 (≈ 0.642 µM) | 0.48 (≈ 0.856 µM) | 0.02 (≈ 0.0357 µM) | 0.17 (≈ 0.303 µM) |  | 3 (≈ 5.35 µM) |  |  |  |  |  |  |  |  |  |  |  |  | 0.24 (≈ 0.428 µM) | 
Nc1nc(/C(=N/OC2(C(=O)O)CCC2)C(=O)NC2C(=O)N3C(C(=O)[O-])=C(C[n+]4ccc5sc(N)nc5c4)CS[C@H]23)cs1 (stereo partly shown) [Ik, 7-[(Z)-2-(2-Aminothiazol-4-yl)-2-(1-carboxycyclobut-1-oxyimino)-acetamido]-3-(2-amino-5-thiazolo[4,5-c]pyridinio)methyl-3-cephem-4-carboxylate] | 1.4 (≈ 2.22 µM) | 3.3 (≈ 5.23 µM) | 0.015 (≈ 0.0238 µM) | 0.36 (≈ 0.571 µM) |  | 1.4 (≈ 2.22 µM) |  | 20000 | 16000 | 11000 | 8200 | 5200 | 4100 | 1800 | 670 | 22 | 0.046 | 3 | 0.27 (≈ 0.428 µM) | AUC ([7]; blood, mice, 20 mg/kg im, read-out: AUC): 13000 ng·h/mL; ED50 [9]: 5.5 mg/kg
CC(C)(O/N=C(\C(=O)NC1C(=O)N2C(C(=O)[O-])=C(C[n+]3ccc4sc(N)nc4c3)CSC12)c1csc(N)n1)C(=O)O (stereo not shown) [Io, 7-[(Z)-2-(2-Aminothiazol-4-yl)-2-(2-carboxyprop-2-oxyimino)-acetamido]-3-[{5-(2-aminothiazolo[4,5-c]pyridinio)}methyl]-3-cephem-4-carboxylate] |  | 3.8 (≈ 6.14 µM) | 0.023 (≈ 0.0372 µM) | 0.47 (≈ 0.76 µM) |  | 1.5 (≈ 2.42 µM) |  |  |  |  |  |  |  |  |  |  |  |  | 0.66 (≈ 1.07 µM) | MIC [1]: 1.6 µg/mL (≈ 2.59 µM)
CNC(=O)Nc1nc2c[n+](CC3=C(C(=O)[O-])N4C(=O)C(NC(=O)/C(=N\OC)c5csc(N)n5)[C@H]4SC3)ccc2s1 (stereo partly shown) [Ir, 7-[(Z)-2-(2-Aminothiazol-4-yl)-2-methoxyiminoacetamido]-3-[2-(3-methylureido)-5-thiazolo[4,5-c]pyridinio]methyl-3-cephem-4-carboxylate] |  | 0.8 (≈ 1.33 µM) | 0.025 (≈ 0.0414 µM) | 0.46 (≈ 0.762 µM) |  | 5.2 (≈ 8.61 µM) |  |  |  |  |  |  |  |  |  |  |  |  | 0.52 (≈ 0.861 µM) | MIC [1]: 0.4 µg/mL (≈ 0.663 µM)
CO/N=C(\C(=O)NC1C(=O)N2C(C(=O)[O-])=C(C[n+]3ccc4sc(C(N)=O)nc4c3)CS[C@H]12)c1csc(N)n1 (stereo partly shown) [Ix, 7-[(Z)-2-(2-Aminothiazol-4-yl)-2-methoxyiminoacetamido]-3-(2-carbamoyl-5-thiazolo[4,5-c]pyridinio)methyl-3-cephem-4-carboxylate] | 0.53 (≈ 0.922 µM) | 0.8 (≈ 1.39 µM) | 0.022 (≈ 0.0383 µM) | 0.2 (≈ 0.348 µM) |  | 2.8 (≈ 4.87 µM) | 19000 | 20000 | 18000 | 20000 | 13000 | 11000 | 7000 | 4200 | 2100 | 31 | 0.013 | 1.5 | 0.39 (≈ 0.679 µM) | 
